In data set [1] the target is T1, human recombinant Dipeptidyl peptidase IV enzyme (hrDPP IV) (Homo sapiens, UniProt P27487).
T1 construct: purchased R&D systems
Briefly: DPP IV assay, cleavage of H-Gly-Pro-AMC by human recombinant DPP-IV enzyme. Format: biochemical. As to conditions: for inhibition at 0.3 µM: 300 nM compound concentration. The method, boiled down: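 Human recombinant DPP-IV (3 ng) preincubated 60 min at room temperature with compound in 25 mM HEPES, 140 mM NaCl, 1% BSA, pH 7.8, in duplicate. Reaction with H-Gly-Pro-AMC (10 μL of 100 μM) for 20 min, stopped with acetic acid; AMC fluorescence 360/460 nm, IC50 from percent inhibition.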

In data set [2] the target is T2, human recombinant Dipeptidyl peptidase 8 enzyme (hrDPP 8) (Homo sapiens, UniProt Q6V1X1).
T2 construct: purchased R&D systems
Briefly: DPP 8 assay, cleavage of H-Ala-Pro-AFC. The format is biochemical. As to conditions: for Selectivity (Fold) DPP 8: selectivity for DPP-IV over DPP 8. The procedure:
DPP 8 activity was determined by the cleavage rate of 7-amino 4-fluoromethylcoumarin (AFC) from the substrate H-Ala-Pro-AFC. In brief, the assay was conducted by adding 30 ng of human recombinant Dipeptidyl peptidase 8 enzyme (hrDPP 8, available commercially from R&D systems) in 70 μL of the assay buffer (50 mM TRIS and 5 mM EDTA, pH 7.7) to a 96 well black flat bottom microtitre plate. Test compound was added as 10 μL additions to all wells except blank and total activity wells. After incubation of test substance with enzyme for 30 minutes at room temperature, 10 μL of 100 μM substrate H-Ala-Pro-AFC was added. After mixing, the plate was left for 30 minutes at room temperature. Then the reaction was terminated by addition of 10 μL of 25% Glacial Acetic Acid. Fluorescence was measured using Spectra Max Gemini XS (Molecular Devices, USA) at an excitation filter of 400 nm and emission filter of 505 nm.
Test compound dissolved in DMSO were diluted with assay buffer at different concentrations and tested in duplicates. Percentage inhibition was calculated with respect to total activity. IC50 value was calculated using Prism Software.

In data set [3] the target is T3, human recombinant Dipeptidyl peptidase 9 enzyme (hrDPP 9) (Homo sapiens, UniProt Q86TI2).
T3 construct: purchased R&D systems
Briefly: DPP 9 assay, cleavage of H-Gly-Pro-AMC. The format is biochemical. As to conditions: for Selectivity (Fold) DPP 9: selectivity for DPP-IV over DPP 9. The method, then:
DPP 9 activity was determined by the cleavage rate of 7-amino 4-methylcoumarin (AMC) from the substrate H-Gly-Pro-AMC. In brief, the assay was conducted by adding 10 ng of human recombinant Dipeptidyl peptidase 9 enzyme (hrDPP 9, available commercially from R&D systems) in 70 μL of the assay buffer (50 mM TRIS and 5 mM EDTA, pH 7.7) to a 96 well black flat bottom microtitre plate. Test compound was added as 10 μL additions to all wells except blank and total activity wells. After incubation of test substance with enzyme for 30 minutes at room temperature, 10 μL of 100 μM substrate H-Gly-Pro-AMC was added. After mixing, the plate was left for 30 minutes at room temperature. Then the reaction was terminated by addition of 10 μL of 25% Glacial Acetic Acid. Fluorescence was measured using Spectra Max Gemini XS (Molecular Devices, USA) at an excitation filter of 360 nm and emission filter of 460 nm.
Test compound dissolved in DMSO were diluted with assay buffer at different concentrations and tested in duplicates. Percentage inhibition was calculated with respect to total activity. IC50 value was calculated by using Prism Software.

A further data set deals with C57BL/6 mice. As to the kind of experiment: Oral glucose tolerance test. The settings on record: compound 10 mg/kg; for Antihyperglycemic activity, reduction in AUC (blood glucose), Time 6.00 hr: glucose 2 g/kg challenge 6.00 hr after compound administration, NA = No activity. The format is in vivo. The method, then:
Effect of compound on glucose tolerance was examined in 7 week old C57BL/6 mice. Animals were kept for 18 h fasting and were challenged with glucose (2 g/kg) 30 min after compound (10 mg/kg) administration. Blood samples for glucose measurement were obtained by tail bleed pre dose and at serial time points after the glucose load (30, 60 and 120 minutes). Blood glucose estimation was done by using ContourTS active strips on glucometer (Bayer). To find the time response on glucose excursion, animals were challenged with glucose at different time point after compound administration (0.5, 2, 4, 6, 8, 12 or 24 hours) at blood glucose was measured at pre (0 minute) and post (30, 60 and 120 minutes) glucose load.
Results of blood glucose were expressed as area under curve (AUC) was calculated using Prism software.

T1 sequence (P27487 whole entry): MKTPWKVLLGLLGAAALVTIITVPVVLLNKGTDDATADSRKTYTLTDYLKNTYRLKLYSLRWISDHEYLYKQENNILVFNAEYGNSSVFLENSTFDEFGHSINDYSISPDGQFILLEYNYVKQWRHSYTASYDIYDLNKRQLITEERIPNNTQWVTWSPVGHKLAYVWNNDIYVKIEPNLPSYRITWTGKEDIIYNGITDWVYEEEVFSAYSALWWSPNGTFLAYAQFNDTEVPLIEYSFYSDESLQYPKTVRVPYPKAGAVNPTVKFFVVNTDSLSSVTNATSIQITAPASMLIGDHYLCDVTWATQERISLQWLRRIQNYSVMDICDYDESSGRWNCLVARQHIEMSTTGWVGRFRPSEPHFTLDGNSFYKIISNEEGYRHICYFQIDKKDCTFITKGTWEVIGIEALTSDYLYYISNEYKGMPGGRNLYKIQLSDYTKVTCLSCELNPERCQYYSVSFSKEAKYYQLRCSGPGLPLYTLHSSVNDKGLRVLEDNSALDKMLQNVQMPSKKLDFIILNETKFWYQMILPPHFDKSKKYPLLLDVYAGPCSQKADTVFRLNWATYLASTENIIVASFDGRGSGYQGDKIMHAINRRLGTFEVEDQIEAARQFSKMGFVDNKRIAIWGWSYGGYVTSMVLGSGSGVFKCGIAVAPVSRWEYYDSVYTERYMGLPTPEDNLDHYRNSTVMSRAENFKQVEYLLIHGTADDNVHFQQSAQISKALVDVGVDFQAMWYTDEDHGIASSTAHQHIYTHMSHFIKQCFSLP
T3 sequence (Q86TI2 whole entry): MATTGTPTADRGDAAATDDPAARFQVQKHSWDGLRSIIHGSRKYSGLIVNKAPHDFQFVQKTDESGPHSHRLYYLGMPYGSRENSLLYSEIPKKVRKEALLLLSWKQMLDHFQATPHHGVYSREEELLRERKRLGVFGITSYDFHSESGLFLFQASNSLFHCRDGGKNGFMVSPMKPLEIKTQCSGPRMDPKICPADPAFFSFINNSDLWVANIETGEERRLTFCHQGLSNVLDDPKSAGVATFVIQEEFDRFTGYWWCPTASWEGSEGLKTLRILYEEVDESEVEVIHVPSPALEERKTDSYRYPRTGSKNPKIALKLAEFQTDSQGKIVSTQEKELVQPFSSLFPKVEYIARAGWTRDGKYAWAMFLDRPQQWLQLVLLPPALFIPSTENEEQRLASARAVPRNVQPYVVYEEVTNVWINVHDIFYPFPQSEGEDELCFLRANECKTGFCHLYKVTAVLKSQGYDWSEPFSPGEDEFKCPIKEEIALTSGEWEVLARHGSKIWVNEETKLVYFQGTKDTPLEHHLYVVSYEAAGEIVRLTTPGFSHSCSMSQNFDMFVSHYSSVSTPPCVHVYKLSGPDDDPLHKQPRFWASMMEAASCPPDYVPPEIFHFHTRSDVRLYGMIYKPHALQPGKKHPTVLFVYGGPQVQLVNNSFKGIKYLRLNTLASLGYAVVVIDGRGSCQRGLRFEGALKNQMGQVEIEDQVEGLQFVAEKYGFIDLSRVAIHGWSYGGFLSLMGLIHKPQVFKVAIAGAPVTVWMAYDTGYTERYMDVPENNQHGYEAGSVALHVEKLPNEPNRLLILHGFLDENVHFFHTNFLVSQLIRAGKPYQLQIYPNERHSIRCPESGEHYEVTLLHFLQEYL
T2 sequence (Q6V1X1 whole entry): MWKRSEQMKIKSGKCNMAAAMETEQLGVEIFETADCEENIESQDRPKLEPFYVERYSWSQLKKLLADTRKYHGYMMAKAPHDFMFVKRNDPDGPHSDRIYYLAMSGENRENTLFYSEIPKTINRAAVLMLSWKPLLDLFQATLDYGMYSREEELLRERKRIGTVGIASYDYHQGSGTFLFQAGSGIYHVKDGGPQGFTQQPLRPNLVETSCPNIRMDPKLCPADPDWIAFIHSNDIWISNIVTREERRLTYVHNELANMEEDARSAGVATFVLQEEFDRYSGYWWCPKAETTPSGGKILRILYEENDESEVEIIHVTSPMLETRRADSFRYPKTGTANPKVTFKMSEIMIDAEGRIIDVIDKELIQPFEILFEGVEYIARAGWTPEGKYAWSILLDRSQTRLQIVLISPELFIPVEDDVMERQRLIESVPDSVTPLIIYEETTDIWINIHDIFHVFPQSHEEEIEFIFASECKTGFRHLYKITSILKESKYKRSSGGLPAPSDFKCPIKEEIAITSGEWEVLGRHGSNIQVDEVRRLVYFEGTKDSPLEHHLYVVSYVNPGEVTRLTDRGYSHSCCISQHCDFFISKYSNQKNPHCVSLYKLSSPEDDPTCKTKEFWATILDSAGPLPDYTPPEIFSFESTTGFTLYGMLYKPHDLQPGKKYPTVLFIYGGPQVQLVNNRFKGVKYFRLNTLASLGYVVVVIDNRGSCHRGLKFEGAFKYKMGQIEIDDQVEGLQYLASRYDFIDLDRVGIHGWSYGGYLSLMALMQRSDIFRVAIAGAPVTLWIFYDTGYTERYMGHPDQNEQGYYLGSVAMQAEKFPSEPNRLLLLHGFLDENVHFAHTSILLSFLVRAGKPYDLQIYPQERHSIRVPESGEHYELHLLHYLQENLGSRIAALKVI

For the molecule `Cc1noc([C@]2(C)CC[C@H](NCC(=O)N3C[C@@H](F)C[C@H]3C#N)C2(C)C)n1` [Example 74, (2S,4S)-4-Fluoro-1-(2-((1S,3R)-2,2,3-trimethyl-3-(3-methyl-1,2,4-oxadiazol-5-yl)cyclopentylamino)acetyl)pyrrolidine-2-carbonitrile], the melting point was in the range of 137 to 141 °C. Besides, in data set [1], the IC50 turned out to be 54.7 nM. In data set [2], the “Selectivity (Fold) DPP 8” value is reported as above 900 Fold. The “Selectivity (Fold) DPP 9” value in data set [3] is given as above 25 Fold.
As to `CC1(C)[C@H](Cc2noc(-c3ccncc3)n2)CC[C@]1(C)NCC(=O)N1C[C@@H](F)C[C@H]1C#N` [Example 63, (2S,4S)-4-Fluoro-1-(2-((1S,3S)-1,2,2-trimethyl-3-((5-(pyridin-4-yl)-1,2,4-oxadiazol-3-yl)methyl)cyclopentylamino)acetyl)pyrrolidine-2-carbonitrile], the melting point lay in the range of 180 to 184 °C. In addition, in data set [1], the IC50 was 19.2 nM and the inhibition at 0.3 µM was determined as 92.6%. In addition, the “Selectivity (Fold) DPP 9” value in data set [3] is above 1850 Fold.
As to `Cc1noc([C@@]2(C)CC[C@@H](NCC(=O)N3C[C@@H](F)C[C@H]3C#N)C2(C)C)n1` [Example 73, (2S,4S)-4-Fluoro-1-(2-((1R,3S)-2,2,3-trimethyl-3-(3-methyl-1,2,4-oxadiazol-5-yl)cyclopentylamino)acetyl)pyrrolidine-2-carbonitrile], the melting point was in the range of 144 to 147 °C. The IC50 in data set [1] was found to be 41 nM. The “Selectivity (Fold) DPP 8” value in data set [2] is reported as above 2300 Fold. Further, in data set [3], the “Selectivity (Fold) DPP 9” value is listed as above 150 Fold.
Take `CC1(C)[C@H](NCC(=O)N2C[C@@H](F)C[C@H]2C#N)CC[C@]1(C)c1nc(-c2ccc(F)cc2)no1` [Example 64, (2S,4S)-4-Fluoro-1-(2-((1R,3S)-3-(3-(4-fluorophenyl)-1,2,4-oxadiazol-5-yl)-2,2,3-trimethylcyclopentylamino)acetyl)pyrrolidine-2-carbonitrile]: in data set [1], the IC50 was found to be 76.1 nM. The “Selectivity (Fold) DPP 8” value in data set [2] is given as above 450 Fold. In data set [3], the “Selectivity (Fold) DPP 9” value is on record as above 250 Fold.
In turn, `CC1(C)[C@H](Cc2noc(C(F)(F)F)n2)CC[C@]1(C)NCC(=O)N1C[C@@H](F)C[C@H]1C#N` [Example 56, (2S,4S)-4-Fluoro-1-(2-((1S,3S)-1,2,2-trimethyl-3-((5-(trifluoromethyl)-1,2,4-oxadiazol-3-yl)methyl)cyclopentylamino)acetyl)pyrrolidine-2-carbonitrile] yielded a melting point of 130 to 131 °C. For the same molecule, in data set [1], the IC50 came to 19.6 nM and the inhibition at 0.3 µM was determined as 95.7%. Moreover, the “Antihyperglycemic activity, reduction in AUC (blood glucose), Time 6.00 hr” value in the data set on C57BL/6 mice stood at 7.07%.
`CC1(C)[C@@H](NCC(=O)N2C[C@@H](F)C[C@H]2C#N)CC[C@@]1(C)c1nc(-c2cnccn2)no1` [Example 72, (2S,4S)-4-Fluoro-1-(2-((1S,3R)-2,2,3-trimethyl-3-(3-(pyrazin-2-yl)-1,2,4-oxadiazol-5-yl)cyclopentylamino)acetyl)pyrrolidine-2-carbonitrile] gave a melting point of 65 to 70 °C. For the same molecule, the IC50 in data set [1] was found to be 32.3 nM. The “Selectivity (Fold) DPP 8” value in data set [2] is on record as above 1250 Fold. Moreover, in data set [3], the “Selectivity (Fold) DPP 9” value is reported as above 35 Fold.
Taken in the same sequence, the figures for `CC1(C)[C@H](NCC(=O)N2C[C@@H](F)C[C@H]2C#N)CC[C@]1(C)c1nc(-c2cccnc2)no1` [Example 69, (2S,4S)-4-Fluoro-1-(2-((1R,3S)-2,2,3-trimethyl-3-(3-(pyridin-3-yl)-1,2,4-oxadiazol-5-yl)cyclopentylamino)acetyl)pyrrolidine-2-carbonitrile] were 70 to 75 °C, 18.6 nM, above 1800 Fold and above 150 Fold.
Molecule `CC1(C)[C@@H](NCC(=O)N2C[C@@H](F)C[C@H]2C#N)CC[C@@]1(C)c1nc(-c2ccncc2)no1` [Example 70, (2S,4S)-4-Fluoro-1-(2-((1S,3R)-2,2,3-trimethyl-3-(3-(pyridin-4-yl)-1,2,4-oxadiazol-5-yl)cyclopentylamino)acetyl)pyrrolidine-2-carbonitrile] gave a melting point of 149 to 153 °C. Also, in data set [1], the IC50 turned out to be 26.7 nM. Besides, the “Selectivity (Fold) DPP 8” value in data set [2] is on record as above 550 Fold. Besides, the “Selectivity (Fold) DPP 9” value in data set [3] was above 25 Fold.
`CC1(C)[C@@H](NCC(=O)N2C[C@@H](F)C[C@H]2C#N)CC[C@@]1(C)c1nc(-c2cccnc2)no1` [Example 68, (2S,4S)-4-Fluoro-1-(2-((1S,3R)-2,2,3-trimethyl-3-(3-(pyridin-3-yl)-1,2,4-oxadiazol-5-yl)cyclopentylamino)acetyl)pyrrolidine-2-carbonitrile] showed a melting point of 126 to 130 °C. For the same molecule, the IC50 in data set [1] was 40.2 nM. Also, the “Selectivity (Fold) DPP 8” value in data set [2] is on record as above 250 Fold. In data set [3], the “Selectivity (Fold) DPP 9” value is recorded as above 15 Fold.
`CC1(NCC(=O)N2C[C@@H](F)C[C@H]2C#N)CCC(CS(=O)(=O)c2ccc(S(C)(=O)=O)cc2)C1(C)C` (stereo in doubt) [Example 45, (2S,4S)-4-Fluoro-1-(2-((1S,3R)-1,2,2-trimethyl-3-((4-(methylsulfonyl)phenylsulfonyl)methyl)cyclopentylamino)acetyl)pyrrolidine-2-carbonitrile] came in with a melting point of 211 to 216 °C. In data set [1], the IC50 stood at 59 nM. In addition, in data set [2] (human recombinant DPP 8, read-out: DPP 8 (cell printed in μM in the Selectivity column)), the IC50 is above 300 µM. Further, in data set [3] (human recombinant DPP 9, read-out: DPP 9 (cell printed in μM in the Selectivity column)), the IC50 is above 300 µM.
`CC1(C)[C@H](CN2CCCCS2(=O)=O)CC[C@]1(C)NCC(=O)N1C[C@@H](F)C[C@H]1C#N` [Example 30, (2S,4S)-1-(2-((1S,3R)-3-[(1,1-Dioxido-1,2-thiazinan-2-yl)methyl]-1,2,2-trimethylcyclopentylamino)acetyl)-4-fluoropyrrolidine-2-carbonitrile] yielded a melting point of 186 to 190 °C. Further, the IC50 in data set [1] turned out to be 7.29 nM. In data set [3], the “Selectivity (Fold) DPP 9” value is listed as above 1250 Fold. Besides, the “Antihyperglycemic activity, reduction in AUC (blood glucose), Time 6.00 hr” value in the data set with C57BL/6 mice is 30.90%.
`CC(C)c1nc(C[C@@H]2CC[C@](C)(NCC(=O)N3C[C@@H](F)C[C@H]3C#N)C2(C)C)no1` [Example 61, (2S,4S)-4-Fluoro-1-(2-((1S,3S)-3-((5-isopropyl-1,2,4-oxadiazol-3-yl)methyl)-1,2,2-trimethylcyclopentylamino)acetyl)pyrrolidine-2-carbonitrile methanesulfonate]: in data set [1], the IC50 was determined as 13.8 nM and the inhibition at 0.3 µM came out at 96.2%. Further, in data set [3], the “Selectivity (Fold) DPP 9” value is given as above 7271 Fold.
`Cc1nc(C[C@@H]2CC[C@](C)(NCC(=O)N3C[C@@H](F)C[C@H]3C#N)C2(C)C)no1` [Example 55, (2S,4S)-4-Fluoro-1-(2-((1S,3S)-1,2,2-trimethyl-3-((5-methyl-1,2,4-oxadiazol-3-yl)methyl)cyclopentylamino)acetyl)pyrrolidine-2-carbonitrile] displayed a melting point of 131 to 133 °C. For the same molecule, in data set [1], the IC50 was 4.39 nM. Also, the “Selectivity (Fold) DPP 9” value in data set [3] is above 9000 Fold. The “Antihyperglycemic activity, reduction in AUC (blood glucose), Time 0.50 hr” value in the data set on C57BL/6 mice (glucose 2 g/kg challenge 0.50 hr after compound administration) was found to be 48.30%. The “Antihyperglycemic activity, reduction in AUC (blood glucose), Time 4.00 hr” value in the data set on C57BL/6 mice (glucose 2 g/kg challenge 4.00 hr after compound administration) was found to be 45.69%. Also, the “Antihyperglycemic activity, reduction in AUC (blood glucose), Time 6.00 hr” value in the data set on C57BL/6 mice is recorded as 28.28%. Moreover, the “Antihyperglycemic activity, reduction in AUC (blood glucose), Time 8.00 hr” value in the data set with C57BL/6 mice (glucose 2 g/kg challenge 8.00 hr after compound administration) worked out at 18.63%.

As a reminder, the melting point is the temperature of the solid-liquid transition. Usually inhibition stands for the drop in the measured response relative to a control, in per cent.

The record behind these values is patent US8466145B2, “Dipeptidyl peptidase IV inhibitors” (Orchid Chemicals & Pharmaceuticals Limited, priority 2009, dated 2013).
